Assay results taken from ChEMBL document CHEMBL1155973, “Disubstituted pyrimidines as Lck inhibitors” (Bioorg Med Chem Lett, 2009).

Experiments:
[1] = target: T1, Tyrosine-protein kinase Lck (Homo sapiens, UniProt P06239); experiment: Inhibition of Lck
Jurkat = experiment: Inhibition of antigen-stimulated IL-2 production in human Jurkat cells expressing MART-1 antigen specific TCR; assay type: functional, cell-based
[2] = target: T1, Tyrosine-protein kinase Lck; experiment: Inhibition of Lck kinase activity

T1 sequence (P06239 whole entry): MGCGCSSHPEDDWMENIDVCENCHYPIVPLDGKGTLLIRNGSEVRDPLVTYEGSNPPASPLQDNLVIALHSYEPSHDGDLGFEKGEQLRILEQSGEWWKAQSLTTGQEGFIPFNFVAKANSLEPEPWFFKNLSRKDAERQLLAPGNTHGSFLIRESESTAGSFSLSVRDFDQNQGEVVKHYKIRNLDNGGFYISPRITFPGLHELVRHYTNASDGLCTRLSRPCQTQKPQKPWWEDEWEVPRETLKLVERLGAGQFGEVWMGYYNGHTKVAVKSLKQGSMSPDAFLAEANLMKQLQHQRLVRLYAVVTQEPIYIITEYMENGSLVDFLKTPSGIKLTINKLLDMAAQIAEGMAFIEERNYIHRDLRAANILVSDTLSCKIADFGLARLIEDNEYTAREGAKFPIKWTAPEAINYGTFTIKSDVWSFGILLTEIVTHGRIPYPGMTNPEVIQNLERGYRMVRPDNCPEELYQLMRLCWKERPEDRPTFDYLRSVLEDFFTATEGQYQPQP

Compound	IC50 [1]	IC50 (Jurkat; Homo sapiens, Jurkat)	IC50 [2]	IC50 (Jurkat; jurkat)
CN1CCN(C(=O)c2ccc3ccccc3c2)CC1CNc1nccc(-n2cnc3ccccc32)n1 (centres undefined)	10 nM			
C[C@H](Nc1nccc(-n2cnc3cc(-c4ccnc(N)n4)ccc32)n1)c1ccccc1	1.5 nM	111 nM		
CC(=O)N1CCN(C(=O)Nc2cccc3ccccc23)C[C@H]1[C@H](C)Nc1nccc(-n2cnc3ccccc32)n1	115 nM	> 10000 nM		
c1ccc(CNc2nccc(-n3cnc4ccccc43)n2)cc1	827 nM			
CC(C)CN1CCN(C(=O)Nc2cccc3ccccc23)C[C@H]1[C@H](C)Nc1nccc(-n2cnc3ccccc32)n1	0.2 nM	538 nM		
CCN1CCN(C(=O)Nc2cccc3ccccc23)C[C@H]1[C@H](C)Nc1nccc(-n2cnc3ccccc32)n1	0.07 nM	154 nM		
CC(Nc1nccc(-n2cnc3ccccc32)n1)C1CCCN(C(=O)Nc2ccccc2)C1 (centres undefined)	11 nM			
Cc1cc2ncn(-c3ccnc(N[C@@H](C)c4ccccc4)n3)c2cc1C	2070 nM		2070 nM	
C[C@H](Nc1nccc(-n2cnc3ccccc32)n1)[C@@H]1CN(C(=O)Nc2cccc3ccccc23)CCN1c1ccncc1	0.2 nM	546 nM		
CC(Nc1nccc(-n2cnc3ccccc32)n1)C1CCCN(C(=O)OCc2ccccc2)C1 (stereo in doubt; 12a)	144 nM			
CC(Nc1nccc(-n2cnc3ccccc32)n1)C1CCCN(C(=O)Nc2ccc3ccccc3c2)C1 (centres undefined)	40 nM			
C[C@H](Nc1nccc(-n2cnc3cc(-c4ccncc4)ccc32)n1)[C@@H]1CN(C(=O)Nc2cccc3ccccc23)CCN1C	0.12 nM	8 nM		
CC(Nc1nccc(-n2cnc3ccccc32)n1)C1CN(C(=O)Nc2cccc3ccccc23)CCN1Cc1ccccc1 (centres undefined)	2.6 nM	> 1000 nM		
CCCCCCN1CCN(C(=O)Nc2cccc3ccccc23)C[C@H]1[C@H](C)Nc1nccc(-n2cnc3ccccc32)n1	1.8 nM	> 1000 nM		
CC(Nc1nccc(-n2cnc3ccccc32)n1)C1CCCN(C(=O)OCc2ccccc2)C1 (stereo in doubt; 12b)	2720 nM			
CC(Nc1nccc(-n2cnc3ccccc32)n1)C1CN(C(=O)Nc2ccc3ccccc3c2)CCN1C (centres undefined)	75.2 nM	> 1000 nM		
CC(Nc1nccc(-n2cnc3ccccc32)n1)C1CCCN(C(=O)Cc2ccccc2)C1 (centres undefined)	800 nM			
O=C(c1ccc2ccccc2c1)N1CCCC(CNc2nccc(-n3cnc4ccccc43)n2)C1 (centres undefined)	106 nM			
CC(Nc1nccc(-n2cnc3ccccc32)n1)C1CCCN(C(=O)Oc2ccccc2)C1 (centres undefined)	46 nM			
Cc1nc2ccccc2n1-c1ccnc(N[C@@H](C)c2ccccc2)n1	> 20000 nM		> 20000 nM	
C[C@H](Nc1nccc(-n2cnc3ccccc32)n1)C1CCCCC1	243 nM			
CC(Nc1nccc(-n2cnc3ccccc32)n1)C1CN(Cc2ccccc2)CCN1C (centres undefined)	501 nM	> 10000 nM		
O=C(c1ccc2ccccc2c1)N1CCOC(CNc2nccc(-n3cnc4ccccc43)n2)C1 (centres undefined)	203 nM			
C[C@H](Nc1nccc(-n2cnc3ccccc32)n1)c1ccccc1	153 nM			
C[C@H](Nc1nccc(-n2cnc3cc(-c4ccncc4)ccc32)n1)c1ccccc1	3 nM	98 nM		
CNC(=O)N1CCCC(C(C)Nc2nccc(-n3cnc4ccccc43)n2)C1 (centres undefined)	242 nM			
C[C@H](Nc1nccc(-n2cnc3cc(-c4ccnc(N)n4)ccc32)n1)[C@@H]1CN(C(=O)Nc2cccc3ccccc23)CCN1C	0.07 nM	16 nM		
CC(Nc1nccc(-n2cnc3ccccc32)n1)C1CN(S(C)(=O)=O)CCN1C (centres undefined)	22.5 nM	> 1000 nM		

The remaining lines, values ahead:

IC50 [1]	IC50 (Jurkat; Homo sapiens, Jurkat)	IC50 [2]	IC50 (Jurkat; jurkat)	Compound
650 nM				O=C(OCc1ccccc1)N1CCCC(CNc2nccc(-n3cnc4ccccc43)n2)C1 (centres undefined)
0.06 nM	111 nM			C[C@H](Nc1nccc(-n2cnc3ccccc32)n1)[C@@H]1CN(C(=O)Nc2cccc3ccccc23)CCN1C
0.45 nM	847 nM			CCOC(=O)CN1CCN(C(=O)Nc2cccc3ccccc23)C[C@H]1[C@H](C)Nc1nccc(-n2cnc3ccccc32)n1
1260 nM				CC(Nc1nccc(-n2cnc3ccccc32)n1)C1CCCN(C(=O)NC2CCCCC2)C1 (centres undefined)
> 1000 nM	> 10000 nM			CC(Nc1nccc(-n2cnc3ccccc32)n1)C1CN(C)CCN1C (centres undefined)
110 nM				O=C(Nc1cccc2ccccc12)N1CCNC(CNc2nccc(-n3cnc4ccccc43)n2)C1 (centres undefined)
0.25 nM			361 nM	CC(Nc1nccc(-n2cnc3ccccc32)n1)C1CN(C(=O)Nc2cccc3ccccc23)CCN1C (single isomer, unassigned; diastereomer 1)
128 nM		128 nM		Cc1ccc2c(c1)ncn2-c1ccnc(N[C@@H](C)c2ccccc2)n1
> 20000 nM				O=C(OCc1ccccc1)N1CCCCC1CNc1nccc(-n2cnc3ccccc32)n1 (centres undefined)
17.4 nM			> 1000 nM	CC(Nc1nccc(-n2cnc3ccccc32)n1)C1CN(C(=O)Nc2cccc3ccccc23)CCN1C (single isomer, unassigned; diastereomer 2)
0.4 nM				C[C@H](Nc1nccc(-n2cnc3ccccc32)n1)[C@H]1CCCN(C(=O)Nc2cccc3ccccc23)C1
0.4 nM	42 nM			CCN1CCN(c2ccc3c(c2)ncn3-c2ccnc(N[C@@H](C)[C@@H]3CN(C(=O)Nc4cccc5ccccc45)CCN3C)n2)C1=O
58 nM		58 nM		Cc1ccc2ncn(-c3ccnc(N[C@@H](C)c4ccccc4)n3)c2c1
47 nM				C[C@H](Nc1nccc(-n2cnc3ccccc32)n1)c1cccc([N+](=O)[O-])c1
1770 nM				C[C@@H](Nc1nccc(-n2cnc3ccccc32)n1)c1ccccc1
1 nM				CC(Nc1nccc(-n2cnc3ccccc32)n1)C1CCCN(C(=O)Nc2cccc3ccccc23)C1 (racemic)
11.8 nM	> 1000 nM			CC(Nc1nccc(-n2cnc3ccccc32)n1)C1CN(C(=O)Nc2cccc3ccccc23)CCN1S(C)(=O)=O (centres undefined)
> 10000 nM				O=C(Nc1cccc2ccccc12)N1CCC(CNc2nccc(-n3cnc4ccccc43)n2)C1 (centres undefined)
> 1000 nM	> 10000 nM			CC(Nc1nccc(-n2cnc3ccccc32)n1)C1CNCCN1C (centres undefined)
> 1000 nM	> 10000 nM			CC(Nc1nccc(-n2cnc3ccccc32)n1)C1CN(C(=O)Nc2cccc3ccccc23)CCN1C(=O)OCc1ccccc1 (centres undefined)
> 20000 nM				O=C(OCc1ccccc1)N1CCC(CNc2nccc(-n3cnc4ccccc43)n2)CC1
26.5 nM	> 10000 nM			CC(Nc1nccc(-n2cnc3ccccc32)n1)C1CN(C(=O)Nc2cccc3ccccc23)CCN1S(=O)(=O)c1ccccc1 (centres undefined)
1 nM	167 nM			CCN1CCN(c2ccc3c(c2)ncn3-c2ccnc(N[C@@H](C)c3ccccc3)n2)C1=O
